Measured values taken from patent US12054560B2, “Bifunctional molecules recruiting antibodies and targeting cancer cells” (JIANGNAN UNIVERSITY, priority 2017, dated 2024).
Bridge positions count the residues as written; N and C are the ends. Ends that are not written are not given here.

Key:
[1] = test system: HUVEC (high expression of CD13); experiment: Flow cytometry, recruitment of anti-DNP antibody on HUVEC cells; type: cell-based; settings: 250 nM, anti-DNP antibody 20 μg/mL, FIG. 9
Method: Cell assay implementation: cell culture: commercial cells HUVEC (high expression of CD13) was cultured in DMEM complete medium. All cell culture conditions were 37° C., 5% CO2. Flow cytometry assay: (1) The cells were digested with trypsin, resuspended in flow medium diluted to 1×10^5 cells. 400 μL of cells (40,000 cells) were added to a sterile EP tube. (2) NGR oligopeptide (NGR peptide, amino acid sequence: GGG-cyclo-(CNGRC) (SEQ ID NO:8)) or NGR-DNP were added at a final concentration of 250 nM. In the negative control group, cells were treated with PBS. The cells were added anti-DNP (anti-DNP) antibody at a concentration of 20 μg/mL in all groups, incubate on ice for 1 h. then the cells were washed and incubated with fluorescent secondary antibody for 0.5 h. (3) The cells were thoroughly washed gently with a flow buffer, resuspended, and analyzed by instruments.

HUVEC cells [2] = experiment: CDC assay on HUVEC cells; type: cell-based; settings: 250 nM, anti-DNP antibody, 10% complement, cck8 method, FIG. 9
Method: CDC assay implementation: (1) HUVEC cells were seeded in 96-well plates at a concentration of 5,000 cells/well. After the cells were fully attached, added with NGR oligopeptide (NGR peptide, amino acid sequence: GGG-cyclo-(CNGRC) (SEQ ID NO:8)) or NGR-DNP compound at a final concentration of 250 nM and added a certain concentration of anti-DNP antibody at the same time. After 2 hours of incubation at 37° C., a final concentration of 10% of the complement solution was added and incubated for 1 hour at 37° C. After the incubation, the cell viability was measured by the cck8 method.

HUVEC cells [3] = experiment: ADCC assay on HUVEC cells; type: cell-based; settings: 250 nM, anti-DNP antibody, PBMC, LDH method, FIG. 9
Method: ADCC assay implementation: (1) HUVEC cells were seeded in 96-well plates at a concentration of 10,000 cells/well. After the cells were fully attached, added with NGR oligopeptide (NGR peptide, amino acid sequence: GGG-cyclo-(CNGRC) (SEQ ID NO:8)) or NGR-DNP compound at a final concentration of 250 nM and immediately added a certain concentration of anti-DNP antibody. (2) After incubation for a period of time, freshly extracted PBMC cells were added at a certain effect target ratio for a certain period of time. (3) The supernatant was removed by centrifugation, and cytotoxicity was measured by the LDH method.

CD13 receptor, P15144 = target: T1, CD13 receptor, P15144; experiment: cell-based or functional assay
T1 chain: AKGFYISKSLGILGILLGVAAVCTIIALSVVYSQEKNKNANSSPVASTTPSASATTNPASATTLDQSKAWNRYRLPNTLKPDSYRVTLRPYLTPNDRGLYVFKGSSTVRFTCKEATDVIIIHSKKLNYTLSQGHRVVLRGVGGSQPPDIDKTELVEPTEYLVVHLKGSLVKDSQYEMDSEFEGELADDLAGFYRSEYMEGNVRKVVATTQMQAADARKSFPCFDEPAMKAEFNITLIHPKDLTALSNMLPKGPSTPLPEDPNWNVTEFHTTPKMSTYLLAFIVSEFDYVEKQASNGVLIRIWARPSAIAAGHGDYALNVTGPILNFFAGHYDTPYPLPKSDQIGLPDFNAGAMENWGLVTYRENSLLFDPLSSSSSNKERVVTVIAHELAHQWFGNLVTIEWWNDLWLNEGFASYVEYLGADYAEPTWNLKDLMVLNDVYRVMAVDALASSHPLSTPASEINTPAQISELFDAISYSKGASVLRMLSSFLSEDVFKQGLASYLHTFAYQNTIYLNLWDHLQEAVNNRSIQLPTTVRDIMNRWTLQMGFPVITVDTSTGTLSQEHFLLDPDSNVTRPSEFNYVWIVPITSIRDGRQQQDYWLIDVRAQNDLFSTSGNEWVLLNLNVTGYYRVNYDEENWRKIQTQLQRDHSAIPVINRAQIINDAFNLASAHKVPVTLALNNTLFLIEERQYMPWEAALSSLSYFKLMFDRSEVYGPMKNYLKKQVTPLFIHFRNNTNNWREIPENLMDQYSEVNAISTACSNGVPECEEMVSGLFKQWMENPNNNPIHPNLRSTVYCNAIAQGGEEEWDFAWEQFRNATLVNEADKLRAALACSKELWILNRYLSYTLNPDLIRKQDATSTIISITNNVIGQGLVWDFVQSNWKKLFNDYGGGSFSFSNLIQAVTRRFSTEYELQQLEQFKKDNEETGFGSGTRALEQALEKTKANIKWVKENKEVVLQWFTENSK

[4] = test system: SKBR3 (HER2 positive) cells; experiment: Flow cytometry, recruitment of anti-Rha IgG on SKBR3 cells; type: cell-based; settings: 250 nM, Alexa 488-conjugated rabbit anti-Rha IgG, FIG. 5
Method: SKBR3 (HER2 positive) and MCF7 cells (HER2 negative) were grown in DMEM supplemented with 10% FBS, 1% penicillin-streptomycin. All cells were cultured at 37° C. in a 5% CO2 humidified atmosphere.
(1) Cells were cultured and detached with trypsin-EDTA and then resuspended to 1.0×10^5 cells/mL. Forty thousand of these cells were added into tubes. (2) Nanobody C7b and Rha conjugated C7b were then added to a final concentration of 250 nM, followed which Alexa 488-conjugated rabbit anti-Rha IgG antibodies were added. In the negative control group, cells were treated with PBS instead of nanobody. These cells were incubated on ice for 60 min, (3) washed with flow cytometry buffer and then analyzed using an Accuri C6 flow cytometer.

NGR-DNP: DNP-TEG-COOH coupled to peptide GGGCNGRC, oxidized with iodine to the cyclic form (GGGCNGRC-OH; disulfide 4-8 (inferred); also: DNP-TEG-COOH coupled to peptide, site not given here)
recruitment of antibodies and targeting of tumor cells [1]: can recruit antibodies and target tumor cells | CDC cell lysis rate (HUVEC cells [2]): approximately 60% | ADCC cell lysis rate (HUVEC cells [3]): approximately 60%

GGGCNGRC (modifications not checked) [NGR-DNP]
CDC and ADCC cell lysis rate (CD13 receptor, P15144): 60%

B1: C7b: anti-HER2 nanobody C7b, SEQ ID NO: 2 (related NCBI sequence ID: AFN61318.1) (protein)
VHH: MQVQLVQSGGGLVQAGGSLRLSCAASGRTFSSYAMAWFRQAPGKEREFVAAISWSGANIYVADSVKGRFTISRDNAKDTVYLQMNSLKPEDTAVYYCAVKLGFAPVEERQYDYWGQGTQVTVSSLPETGG
modifications: The HER2-specific nanobody C7b sequence was genetically engineered to contain at its C-terminus a sorting signal for further sortase A-mediated ligation.
fluorescence intensity increase compared to negative control (accumulation of anti-Rha IgGs on cells) [4]: no fluorescence intensity increase
